# Experimental data: patent publication US11166460B2, “α-amino acrylate microbicide, and preparation method therefor and uses thereof” (priority 2017, dated 2021)
# Where two headings read alike, the source gives them in different places.
# Assays:
# [1] = tested on: tobacco mosaic virus (TMV); assay: Anti-TMV protective activity (protection mode), live friction inoculation on tobacco seedlings; format: in vivo; conditions: Tobacco mosaic virus, read-out: Anti-TMV activity, Protection effect (inhibition)
# [2] = tested on: tobacco mosaic virus (TMV); assay: Anti-TMV inducing activity (induction mode), tobacco seedlings; format: in vivo; conditions: Tobacco mosaic virus, read-out: Anti-TMV activity, Induction effect (inhibition), 100 μg/mL, tobacco seedlings
# [3] = tested on: Phytophthora infestans (Mont) de Bary; assay: microbe, parasite or virus in culture; format: cell-based; conditions: Phytophthora infestans
# Rhizoctonia cerealis = assay: Fungicidal activity, fungi growth rate method, RC; format: cell-based; conditions: Ceratobasidium cereale, 50 μg/mL
# Pellicularia sasakii = assay: Fungicidal activity, fungi growth rate method, PS; format: cell-based; conditions: 50 μg/mL
# Botrytis cinerea = assay: Fungicidal activity, fungi growth rate method, BC; format: cell-based; conditions: Botrytis cinerea, 50 μg/mL
# Physalospora piricola = assay: Fungicidal activity, fungi growth rate method, PP; format: cell-based; conditions: 50 μg/mL
# wheat Gibberella zeae = assay: microbe, parasite or virus in culture; format: cell-based; conditions: Fusarium graminearum
# Sclerotinia sclerotiorum = assay: microbe, parasite or virus in culture; format: cell-based; conditions: Sclerotinia sclerotiorum; for inhibition at 50 µg/mL: 50 μg/mL
# Alternaria solani = assay: Fungicidal activity, fungi growth rate method, AS; format: cell-based; conditions: Alternaria solani, 50 μg/mL
# Cercospora arachidicola = assay: Fungicidal activity, fungi growth rate method, CA; format: cell-based; conditions: Mycosphaerella arachidis, 50 μg/mL
# [4] = tested on: tobacco mosaic virus (TMV); assay: Anti-TMV inactivation activity (inactivation mode), compound mixed with TMV before inoculation of tobacco leaves; format: in vivo; conditions: Tobacco mosaic virus, read-out: Anti-TMV activity, Inactivation effect (inhibition)
# [5] = tested on: tobacco mosaic virus (TMV); assay: Anti-TMV curative activity (treatment mode), live friction inoculation on tobacco seedlings; format: in vivo; conditions: Tobacco mosaic virus, read-out: Anti-TMV activity, Curative effect (inhibition), 100 μg/mL, tobacco seedlings, checked on seventh day
# [6] = read-out: Fungicidal activity, inhibition, PI
# [7] = read-out: Fungicidal activity, inhibition, RC
# [8] = read-out: Fungicidal activity, inhibition, PS
# [9] = read-out: Fungicidal activity, inhibition, BC
# [10] = read-out: Fungicidal activity, inhibition, PP
# [11] = read-out: Fungicidal activity, inhibition, GZ
# [12] = read-out: Fungicidal activity, inhibition, SS
# [13] = read-out: Fungicidal activity, inhibition, AS
# [14] = read-out: Fungicidal activity, inhibition, CA
# [15] = read-out: Fungicidal activity (inhibition) against SS: Sclerotinia sclerotiorum
# [16] = read-out: Fungicidal activity (inhibition) against PI: Phytophthora infestans (Mont) de Bary
# [17] = read-out: Fungicidal activity (inhibition) against CA: Cercospora arachidicola
Compound,inhibition at 100 µg/mL [1],inhibition at 100 µg/mL [2],"inhibition at 50 µg/mL [3, 6]",inhibition at 50 µg/mL (Rhizoctonia cerealis; [7]),inhibition at 50 µg/mL (Pellicularia sasakii; [8]),melting point,inhibition at 50 µg/mL (Botrytis cinerea; [9]),inhibition at 50 µg/mL (Physalospora piricola; [10]),inhibition at 50 µg/mL (wheat Gibberella zeae; [11]),inhibition at 50 µg/mL (Sclerotinia sclerotiorum; [12]),inhibition at 50 µg/mL (Alternaria solani; [13]),inhibition at 50 µg/mL (Cercospora arachidicola; [14]),inhibition at 100 µg/mL [4],inhibition at 100 µg/mL [5],inhibition at 50 µg/mL (Sclerotinia sclerotiorum; [15]),other results
"COC(=O)[C@H]1CCCN1C(=O)/C(=C/c1ccccc1)NC(=O)c1ccccc1 [Compound 37, (R,Z)-N-[1-[(2-methylpyrrolidinecarboxylate)]carbonyl-2-phenylethenyl]benzamide]",2%,40%,5%,13%,6%,155 to 157 °C,21%,0%,23%,56%,17%,13%,0%,25%,–,–
"O=C(N/C(=C\c1cccc(C(F)(F)F)c1)C(=O)N1CCC(O)(c2ccc(Br)cc2)CC1)c1ccccc1 [Compound 21, (Z)-N-[1-[[4-(4-bromophenyl)-4-hydroxy-1-piperidinyl]carbonyl]-2-(3-trifluoromethylphenyl)ethenyl]benzamide]",46%,9%,2%,24%,17%,118 to 120 °C,8%,8%,19%,75%,12%,25%,58%,35%,60 to 80%,–
"O=C(N/C(=C\c1ccccc1)C(=O)N1CCC(O)(c2ccc(Br)cc2)CC1)c1ccc(C(F)(F)F)cc1 [Compound 9, (Z)-N-[1-[[4-(4-bromophenyl)-4-hydroxy-1-piperidinyl]carbonyl]-2-phenylethenyl]-4-(trifluoromethyl)benzamide]",60%,10%,18%,11%,17%,130 to 131 °C,13%,7%,0%,100%,15%,14%,15%,50%,100%,EC90 (Sclerotinia sclerotiorum; read-out: EC90 against S. sclerotiorum in vitro): 273 µg/mL
"COc1ccc(/C=C(\NC(=O)c2ccccc2)C(=O)N2CCC(O)(c3ccc(Br)cc3)CC2)cc1 [Compound 16, (Z)-N-[1-[[4-(4-bromophenyl)-4-hydroxy-1-piperidinyl]carbonyl]-2-(4-methoxyphenyl)ethenyl]benzamide]",57%,8%,33%,13%,15%,208 to 210 °C,29%,5%,2%,67%,23%,55%,1%,0%,–,"inhibition at 50 µg/mL [3, 16]: 33%; inhibition at 50 µg/mL (Cercospora arachidicola; [17]): 55%"
"O=C(NC1CCCCC1)/C(=C/c1ccccc1)NC(=O)c1ccccc1 [Compound 40, (Z)-N-[1-[(cyclohexylamino)carbonyl]-2-phenylethenyl]benzamide]",0%,45%,11%,10%,6%,204 to 206 °C,10%,0%,11%,56%,13%,10%,0%,0%,56%,"inhibition at 50 µg/mL [3, 16]: < 25%; inhibition at 50 µg/mL (Rhizoctonia cerealis; read-out: Fungicidal activity (inhibition) against RC: Rhizoctonia cerealis): < 20%; inhibition at 50 µg/mL (Pellicularia sasakii; read-out: Fungicidal activity (inhibition) against PS: Pellicularia sasakii): < 30%; inhibition at 50 µg/mL (Botrytis cinerea; read-out: Fungicidal activity (inhibition) against BC: Botrytis cinerea): ≤ 20%; inhibition at 50 µg/mL (Physalospora piricola; read-out: Fungicidal activity (inhibition) against PP: Physalospora piricola): < 20%; inhibition at 50 µg/mL (wheat Gibberella zeae; read-out: Fungicidal activity (inhibition) against GZ: wheat Gibberella zeae): < 45%; inhibition at 50 µg/mL (Alternaria solani; read-out: Fungicidal activity (inhibition) against AS: Alternaria solani): < 30%; inhibition at 50 µg/mL (Cercospora arachidicola; [17]): < 25%"
"O=C(N/C(=C\c1ccc(F)cc1)C(=O)N1CCC(O)(c2ccc(Br)cc2)CC1)c1ccccc1 [Compound 17, (Z)-N-[1-[[4-(4-bromophenyl)-4-hydroxy-1-piperidinyl]carbonyl]-2-(4-fluorophenyl)ethenyl]-benzamide]",33%,3%,27%,10%,15%,266 to 268 °C,10%,3%,16%,67%,28%,23%,1%,0%,–,–
"O=C(O)/C(=C/c1ccccc1)NC(=O)c1cccs1 [Compound 69, (Z)-2-(2-thiophanoylamino)-3-phenylpropenoic acid]",27%,45%,17%,10%,6%,221 to 223 °C,7%,7%,19%,78%,17%,16%,1%,0%,60 to 80%,–
"O=C(O)/C(=C/c1ccccc1)NC(=O)c1ccc(C(F)(F)F)cc1 [Compound 68, (Z)-2-[4-(trifluoromethyl)benzoylamino]-3-phenylpropenoic acid]",37%,34%,18%,9%,13%,184 to 186 °C,20%,7%,17%,73%,13%,12%,3%,0%,60 to 80%,–
"O=C(NCc1ccccc1Br)/C(=C/c1ccccc1)NC(=O)c1ccccc1 [Compound 52, N-[(1Z)-2-phenyl-1-[[(2-bromophenylmethyl)amino]carbonyl]ethenyl]benzamide]",20%,47%,16%,18%,14%,178 to 180 °C,18%,6%,29%,38%,11%,11%,31%,12%,–,–
"Cc1ccc(/C=C(\NC(=O)c2ccccc2)C(=O)N2CCC(O)(c3ccc(Br)cc3)CC2)cc1 [Compound 15, (Z)-N-[1-[[4-(4-bromophenyl)-4-hydroxy-1-piperidinyl]carbonyl]-2-(4-metylphenyl)ethenyl]benzamide]",0%,41%,21%,16%,12%,234 to 236 °C,10%,7%,10%,56%,17%,13%,0%,20%,–,–
"O=C(N/C(=C\c1ccccc1)C(=O)N1CCC(O)(c2ccc(Br)cc2)CC1)c1ccc([N+](=O)[O-])cc1 [Compound 10, (Z)-N-[1-[[4-(4-bromophenyl)-4-hydroxy-1-piperidinyl]carbonyl]-2-phenylethenyl]-4-nitrobenzamide]",13%,48%,18%,16%,17%,130 to 132 °C,11%,7%,17%,86%,8%,9%,62%,39%,80 to 95%,–
